Earlier results, collected in US6464981B2, “Therapeutic agent for a cancer and method of screening the same, and health-care auxiliary food” (Orient Cancer Therapy Co., LTD, priority 2000, dated 2002).

Tested on: cancer-carrying mice

CCCCCCCCCCCCCCCCCCCCCCCCCC(=O)N[C@@H](CO[C@H]1O[C@H](CO)[C@H](O)[C@H](O)[C@H]1O)[C@H](O)[C@H](O)CCCCCCCCCCCCCC [α-galactosylceramide]
activation of NKT cells: NKT cells are activated | elimination of cancer: elimination of cancer is not observed | metastasis of the cancer: metastasis of the cancer is suppressed
